From the NIST ThermoML archive (doi:10.1021/je500502a)

Columns and labels:
[1] = 101.33 kPa, Liquid; for electrical conductivity: PICO digital conductivity meter; for speed of sound: Sing-around technique in a fixed-path interferometer; for mass density: Vibrating tube method
[2] = refractive index (Na D-line) (dimensionless); settings: 101.33 kPa, Liquid, Standard Abbe refractometry

CCn1cc[n+](C)c1.O=S(=O)([N-]S(=O)(=O)C(F)(F)F)C(F)(F)F
Settings	electrical conductivity, [1] [S/m]	mass density, [1] [kg/m3]	refractive index, [2]	speed of sound, [1] [m/s]
293.15 K	0.854	1521.47	1.42425	1251.2
298.15 K	0.947	1516.39	1.42286	1240.3
303.15 K	1.07	1511.32	1.42142	1229.4
308.15 K	1.19	1506.27	1.41997	1218.5
313.15 K	1.33	1501.23	1.4185	1207.8
318.15 K	1.48	1496.21	1.41705	1197.2
323.15 K	1.64	1491.21	1.41555	1186.7
